In patent US20240376100A1 (Redona Therapeutics, Inc., priority 2021, published 2024):
Structures can show the parent of a compound that is named as a salt.

What follows are molecules tested against PAPD5 enzyme (Homo sapiens, UniProt Q8NDF8) (assay: PAPD5 assay (AMP incorporation onto 3'-terminus of RNA substrate, fluorescence quench)). Conditions: PAPD5 protein 0.3 nM, ATP 50 μM, 30 minutes preincubation, room temperature; read-out: Potency PAPD5 IC50.
Format: biochemical
In short: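 Enzyme at 0.3 nM with 50 μM ATP, pH 7.3 HEPES buffer, preincubated with compound 30 minutes at room temperature; 5 nM 5′-fluorescein RNA substrate and 20 nM TAMRA quench probe then added. Initial rates from kinetic fluorescein decrease over ~90 minutes; IC50 by four-parameter fit.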

PAPD5 enzyme, sequence (Q8NDF8 whole entry): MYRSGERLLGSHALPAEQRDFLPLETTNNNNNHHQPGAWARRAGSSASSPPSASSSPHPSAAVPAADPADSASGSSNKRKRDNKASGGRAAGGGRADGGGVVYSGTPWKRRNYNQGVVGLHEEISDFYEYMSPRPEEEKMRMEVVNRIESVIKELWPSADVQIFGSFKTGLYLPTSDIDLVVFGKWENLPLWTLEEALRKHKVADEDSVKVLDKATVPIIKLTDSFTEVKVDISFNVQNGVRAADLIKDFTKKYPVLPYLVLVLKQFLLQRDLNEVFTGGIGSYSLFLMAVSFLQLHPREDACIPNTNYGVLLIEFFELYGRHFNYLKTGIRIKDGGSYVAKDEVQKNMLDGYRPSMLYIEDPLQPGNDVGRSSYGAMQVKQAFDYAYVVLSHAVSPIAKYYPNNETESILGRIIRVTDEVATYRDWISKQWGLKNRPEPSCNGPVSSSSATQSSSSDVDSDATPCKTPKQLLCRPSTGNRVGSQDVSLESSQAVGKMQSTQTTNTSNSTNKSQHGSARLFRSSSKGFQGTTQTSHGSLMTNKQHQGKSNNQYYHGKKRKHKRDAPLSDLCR

IC50, ≤ 1000 nM:
CCC(=O)Nc1cc(C)c(-n2cc(C(=O)O)c(=O)c3cc(Cl)c(N4Cc5cccnc5C4)cc32)cn1 [Example 82, 6-chloro-7-(5,7-dihydro-6H-pyrrolo[3,4-b]pyridin-6-yl)-1-(4-methyl-6-propionamidopyridin-3-yl)-4-oxo-1,4-dihydroquinoline-3-carboxylic acid]
Cc1cc(NC(=O)C(C)C)ncc1-n1cc(C(=O)O)c(=O)c2cc(Cl)c(N3Cc4cccnc4C3)cc21 [Example 83, 6-chloro-7-(5,7-dihydro-6H-pyrrolo[3,4-b]pyridin-6-yl)-1-(6-isobutyramido-4-methylpyridin-3-yl)-4-oxo-1,4-dihydroquinoline-3-carboxylic acid]
O=C(O)c1cn(C2CCN(C(=O)c3ccccc3)CC2)c2cc(N3Cc4cccnc4C3)c(Cl)cc2c1=O [Example 84, 1-(1-benzoylpiperidin-4-yl)-6-chloro-7-(5,7-dihydro-6H-pyrrolo[3,4-b]pyridin-6-yl)-4-oxo-1,4-dihydroquinoline-3-carboxylic acid]
O=C(O)c1cn(Cc2c[nH]cn2)c2cc(N3Cc4cccnc4C3)c(Cl)cc2c1=O [Example 85, 1-((1H-imidazol-4-yl)methyl)-6-chloro-7-(5,7-dihydro-6H-pyrrolo[3,4-b]pyridin-6-yl)-4-oxo-1,4-dihydroquinoline-3-carboxylic acid]
Cc1cc(N(C)C)ncc1-n1cc(C(=O)O)c(=O)c2cc(F)c(N3Cc4cccnc4C3)cc21 [Example 86, 7-(5,7-dihydro-6H-pyrrolo[3,4-b]pyridin-6-yl)-1-(6-(dimethylamino)-4-methylpyridin-3-yl)-6-fluoro-4-oxo-1,4-dihydroquinoline-3-carboxylic acid]
CNc1cc(C)c(-n2cc(C(=O)O)c(=O)c3cc(F)c(N4Cc5cccnc5C4)cc32)cn1 [Example 87, 7-(5,7-dihydro-6H-pyrrolo[3,4-b]pyridin-6-yl)-6-fluoro-1-(4-methyl-6-(methylamino)pyridin-3-yl)-4-oxo-1,4-dihydroquinoline-3-carboxylic acid]
CCOC(=O)c1cn(-c2ccc(O)nc2)c2cc(N3Cc4cccnc4C3)c(Cl)cc2c1=O [Example 88, Ethyl 6-chloro-1-(6-hydroxypyridin-3-yl)-4-oxo-7-{5H,7H-pyrrolo[3,4-b]pyridin-6-yl}quinoline-3-carboxylate]
CCOC(=O)c1cn(-c2ccc(N)nc2)c2cc(N3Cc4cccnc4C3)c(Cl)cc2c1=O [Example 89]
CCOC(=O)c1cn(-c2ccc(Cl)nc2)c2cc(N3Cc4cccnc4C3)c(Cl)cc2c1=O [Example 90, Ethyl 6-chloro-1-(6-chloropyridin-3-yl)-7-(5,7-dihydro-6H-pyrrolo[3,4-b]pyridin-6-yl)-4-oxo-1,4-dihydroquinoline-3-carboxylate]
Cc1cc(N2CCC2)ncc1-n1cc(C(=O)O)c(=O)c2cc(Cl)c(N3Cc4cccnc4C3)nc21 [Example 91, 1-(6-(azetidin-1-yl)-4-methylpyridin-3-yl)-6-chloro-7-(5,7-dihydro-6H-pyrrolo[3,4-b]pyridin-6-yl)-4-oxo-1,4-dihydro-1,8-naphthyridine-3-carboxylic acid]
CN(CCO)c1ccn(-c2cc3c(cc2Cl)c(=O)c(C(=O)O)cn3-c2ccc(N)nc2)n1 [Example 92, 1-(6-aminopyridin-3-yl)-6-chloro-7-(3-((2-hydroxyethyl)(methyl)amino)-1H-pyrazol-1-yl)-4-oxo-1,4-dihydroquinoline-3-carboxylic acid]
CN(CCO)c1ccn(-c2nc3c(cc2Cl)c(=O)c(C(=O)O)cn3-c2ccc(N)nc2)n1 [Example 93, 1-(6-aminopyridin-3-yl)-6-chloro-7-(3-((2-hydroxyethyl)(methyl)amino)-1H-pyrazol-1-yl)-4-oxo-1,4-dihydro-1,8-naphthyridine-3-carboxylic acid]
COCCN(C)c1ccn(-c2cc3c(cc2Cl)c(=O)c(C(=O)O)cn3-c2ccc(N)nc2)n1 [Example 94, 1-(6-aminopyridin-3-yl)-6-chloro-7-(3-((2-methoxyethyl)(methyl)amino)-1H-pyrazol-1-yl)-4-oxo-1,4-dihydroquinoline-3-carboxylic acid]
COCCN(C)c1ccn(-c2nc3c(cc2Cl)c(=O)c(C(=O)O)cn3-c2ccc(N)nc2)n1 [Example 95, 1-(6-aminopyridin-3-yl)-6-chloro-7-(3-((2-methoxyethyl)(methyl)amino)-1H-pyrazol-1-yl)-4-oxo-1,4-dihydro-1,8-naphthyridine-3-carboxylic acid]
N#Cc1cc2c(=O)c(C(=O)O)cn(-c3cnc(N)cn3)c2cc1N1Cc2cccnc2C1 [Example 96, 1-(5-aminopyrazin-2-yl)-6-cyano-7-(5,7-dihydro-6H-pyrrolo[3,4-b]pyridin-6-yl)-4-oxo-1,4-dihydroquinoline-3-carboxylic acid]
COCCN1CCC(Cn2cc(C(=O)O)c(=O)c3cc(Cl)c(N4Cc5cccnc5C4)nc32)CC1 [Example 100, 6-chloro-7-(5,7-dihydro-6H-pyrrolo[3,4-b]pyridin-6-yl)-1-((1-(2-methoxyethyl)piperidin-4-yl)methyl)-4-oxo-1,4-dihydro-1,8-naphthyridine-3-carboxylic acid hydro chloride]
O=C(O)c1cn(C2CCOCC2)c2nc(N3Cc4cccnc4C3)c(Cl)cc2c1=O [Example 101, 6-chloro-7-(5,7-dihydro-6H-pyrrolo[3,4-b]pyridin-6-yl)-4-oxo-1-(tetrahydro-2H-pyran-4-yl)-1,4-dihydro-1,8-naphthyridine-3-carboxylic acid]
COc1cnc(-n2cc(C(=O)O)c(=O)c3cc(F)c(N4Cc5cccnc5C4)nc32)cn1 [Example 103, 7-(5,7-dihydro-6H-pyrrolo[3,4-b]pyridin-6-yl)-6-fluoro-1-(5-methoxypyrazin-2-yl)-4-oxo-1,4-dihydro-1,8-naphthyridine-3-carboxylic acid]
Cc1cc(NC(=O)C2CC2)ncc1-n1cc(C(=O)O)c(=O)c2cc(Cl)c(N3Cc4cccnc4C3)cc21 [Example 114, 6-chloro-1-(6-(cyclopropanecarboxamido)-4-methylpyridin-3-yl)-7-(5,7-dihydro-6H-pyrrolo[3,4-b]pyridin-6-yl)-4-oxo-1,4-dihydroquinoline-3-carboxylic acid]
Cc1cc(NC(=O)N2CCOCC2)ncc1-n1cc(C(=O)O)c(=O)c2cc(Cl)c(N3Cc4cccnc4C3)cc21 [Example 115, 6-chloro-7-(5,7-dihydro-6H-pyrrolo[3,4-b]pyridin-6-yl)-1-(4-methyl-6-(morpholine-4-carboxamido)pyridin-3-yl)-4-oxo-1,4-dihydroquinoline-3-carboxylic acid]
Cc1cc(NC(=O)N(C)C)ncc1-n1cc(C(=O)O)c(=O)c2cc(Cl)c(N3Cc4cccnc4C3)cc21 [Example 116, 6-chloro-7-(5,7-dihydro-6H-pyrrolo[3,4-b]pyridin-6-yl)-1-(6-(3,3-dimethylureido)-4-methylpyridin-3-yl)-4-oxo-1,4-dihydroquinoline-3-carboxylic acid]
CCc1cc(N)ncc1-n1cc(C(=O)O)c(=O)c2cc(Cl)c(N3Cc4cccnc4C3)cc21 [Example 117, 1-(6-amino-4-ethylpyridin-3-yl)-6-chloro-7-(5,7-dihydro-6H-pyrrolo[3,4-b]pyridin-6-yl)-4-oxo-1,4-dihydroquinoline-3-carboxylic acid]
Nc1cc(C2CC2)c(-n2cc(C(=O)O)c(=O)c3cc(Cl)c(N4Cc5cccnc5C4)cc32)cn1 [Example 118, 1-(6-amino-4-cyclopropylpyridin-3-yl)-6-chloro-7-(5,7-dihydro-6H-pyrrolo[3,4-b]pyridin-6-yl)-4-oxo-1,4-dihydroquinoline-3-carboxylic acid]
O=C(O)c1cn(CC2CCNCC2)c2cc(N3Cc4cccnc4C3)c(Cl)cc2c1=O [Example 119, 6-chloro-7-(5,7-dihydro-6H-pyrrolo[3,4-b]pyridin-6-yl)-4-oxo-1-(piperidin-4-ylmethyl)-1,4-dihydroquinoline-3-carboxylic acid hydrochloride]
CN1CCC(Cn2cc(C(=O)O)c(=O)c3cc(Cl)c(N4Cc5cccnc5C4)cc32)CC1 [Example 120, 6-chloro-7-(5,7-dihydro-6H-pyrrolo[3,4-b]pyridin-6-yl)-1-((1-methylpiperidin-4-yl)methyl)-4-oxo-1,4-dihydroquinoline-3-carboxylic acid]
CN1CCC(n2cc(C(=O)O)c(=O)c3cc(Cl)c(N4Cc5cccnc5C4)cc32)CC1 [Example 121, 6-chloro-7-(5,7-dihydro-6H-pyrrolo[3,4-b]pyridin-6-yl)-1-(1-methylpiperidin-4-yl)-4-oxo-1,4-dihydroquinoline-3-carboxylic acid]
CC(=O)N1CCC(Cn2cc(C(=O)O)c(=O)c3cc(Cl)c(N4Cc5cccnc5C4)cc32)CC1 [Example 122, 1-((1-acetylpiperidin-4-yl)methyl)-6-chloro-7-(5,7-dihydro-6H-pyrrolo[3,4-b]pyridin-6-yl)-4-oxo-1,4-dihydroquinoline-3-carboxylic acid]
O=C(O)c1cn(C2CCNCC2)c2cc(N3Cc4cccnc4C3)c(Cl)cc2c1=O [Example 123, 6-chloro-7-(5,7-dihydro-6H-pyrrolo[3,4-b]pyridin-6-yl)-4-oxo-1-(piperidin-4-yl)-1,4-dihydroquinoline-3-carboxylic acid hydrochloride]
Cn1cc(Cn2cc(C(=O)O)c(=O)c3cc(Cl)c(N4Cc5cccnc5C4)cc32)cn1 [Example 124, 6-chloro-7-(5,7-dihydro-6H-pyrrolo[3,4-b]pyridin-6-yl)-1-((1-methyl-1H-pyrazol-4-yl)methyl)-4-oxo-1,4-dihydroquinoline-3-carboxylic acid]
